Experimental data as given in patent US9468209B2, “Method for eradicating weeds with derivatives of 3-acetyl-5-sec-butyl-4-hydroxy-3-pyrrolin-2-one” (priority 2012, dated 2016).

Columns and labels:
Assay in all cases: Leaf piece damage test
Assay type in all cases: in vivo
Set-up in all cases: key: 4: The leaf completely dead; 3: Two third of the leaf withered; 2: One half of the leaf withered; 1: Only edge of the leaf withered; 0: Not damage at all
Settings in all cases: 50 μg/mL, 4 days
[1] = test system: Abrtilon theophrasti
Procedure: (§1) Compounds 7, 14, 15, 16, 40, 45, 48 and 53 were dissolved individually in small amount of methanol, and diluted with distilled water to concentration of 50 μg/mL. Methanol water solution and pure water were used as control. A piece of 5 mm leaf was taken from the second leaf of weed sample and was treated with the solution three times. 5 pieces of the leaf were prepared for each treatment. The damage data were collected 4 days later. The measurement of damage level is described in the Table 9.
(§2) The measurement of the plant damage was calculated by the formula: Damage Index=Σ(damage level×number of plants)×100/4/number of plants in each treatment.

[2] = test system: Barbyardgrass Echinochloa crusgalli
Procedure: as §1, §2

[3] = test system: Big Bristlegass
Procedure: as §1, §2

[4] = test system: Carpesium abrotanoides
Procedure: as §1, §2

[5] = test system: Commelina communis
Procedure: as §1, §2

[6] = test system: Common polypogon
Procedure: as §1, §2

[7] = test system: Crabgrass (Digitaria sanguinalis)
Procedure: as §1, §2

[8] = test system: Crisium setosum
Procedure: as §1, §2

[9] = test system: Cyperus difformis
Procedure: as §1, §2

[10] = test system: Eclipta prostrata
Procedure: as §1, §2

[11] = test system: Fimbristylis miliacea
Procedure: as §1, §2

[12] = test system: Goose grass
Procedure: as §1, §2

[13] = test system: Green foxtail (Setaria viridis)
Procedure: as §1, §2

[14] = test system: Malvaceae
Procedure: as §1, §2

[15] = test system: Perilla frutescens
Procedure: as §1, §2

[16] = test system: Pharbitis nil
Procedure: as §1, §2

[17] = test system: Plantago asiatica
Procedure: as §1, §2

[18] = test system: Polygonum lapathifolium
Procedure: as §1, §2

[19] = test system: Polygonum perfoliatum
Procedure: as §1, §2

[20] = test system: Trifolium pretense
Procedure: as §1, §2

[21] = test system: Veronica didyma
Procedure: as §1, §2

[22] = test system: Wild oats
Procedure: as §1, §2

Question: Which Damage level [1] does the source give for `CCCCC1NC(=O)C(C(C)=O)=C1O` (stereo not shown) [Compound 14] here?
Answer: 2

Question: And the Damage level [2]?
Answer: 4

Question: What about the Damage level [3] of the same molecule?
Answer: 2

Question: What about the Damage level [4] of the same molecule?
Answer: 2

Question: What about the Damage level [5] of the same molecule?
Answer: 2

Question: What about the Damage level [6] of the same molecule?
Answer: 3

Question: What about the Damage level [7] of the same molecule?
Answer: 4

Question: And the Damage level [8]?
Answer: 3

Question: And the Damage level [9]?
Answer: 3

Question: And the Damage level [10]?
Answer: 3

Question: What about the Damage level [11] of the same molecule?
Answer: 2

Question: And the Damage level [12]?
Answer: 3

Question: And the Damage level [13]?
Answer: 3

Question: What about the Damage level [14] of the same molecule?
Answer: 2

Question: And the Damage level [15]?
Answer: 2

Question: What about the Damage level [16] of the same molecule?
Answer: 2

Question: And the Damage level [17]?
Answer: 2

Question: What about the Damage level [18] of the same molecule?
Answer: 2

Question: And the Damage level [19]?
Answer: 2

Question: What about the Damage level [20] of the same molecule?
Answer: 3

Question: What about the Damage level [21] of the same molecule?
Answer: 3

Question: And the Damage level [22]?
Answer: 3

Question: For `CCCCCC1NC(=O)C(C(C)=O)=C1O` (stereo not shown) [Compound 15], which Damage level [1] is on record?
Answer: 2

Question: And the Damage level [2]?
Answer: 4

Question: What about the Damage level [3] of the same molecule?
Answer: 2

Question: What about the Damage level [4] of the same molecule?
Answer: 2

Question: And the Damage level [5]?
Answer: 2

Question: And the Damage level [6]?
Answer: 3

Question: And the Damage level [7]?
Answer: 4

Question: What about the Damage level [8] of the same molecule?
Answer: 3

Question: What about the Damage level [9] of the same molecule?
Answer: 3

Question: What about the Damage level [10] of the same molecule?
Answer: 4

Question: And the Damage level [11]?
Answer: 2

Question: What about the Damage level [12] of the same molecule?
Answer: 3

Question: And the Damage level [13]?
Answer: 4

Question: And the Damage level [14]?
Answer: 2

Question: What about the Damage level [15] of the same molecule?
Answer: 3

Question: What about the Damage level [16] of the same molecule?
Answer: 3

Question: What about the Damage level [17] of the same molecule?
Answer: 3

Question: What about the Damage level [18] of the same molecule?
Answer: 2

Question: What about the Damage level [19] of the same molecule?
Answer: 2

Question: What about the Damage level [20] of the same molecule?
Answer: 3

Question: What about the Damage level [21] of the same molecule?
Answer: 2

Question: What about the Damage level [22] of the same molecule?
Answer: 3

Question: What does the source list for `CCCCCCC1NC(=O)C(C(C)=O)=C1O` (stereo not shown) [Compound 16]?
Answer: Damage level [1]: 3; Damage level [2]: 4; Damage level [3]: 3; Damage level [4]: 2; Damage level [5]: 3; Damage level [6]: 3; Damage level [7]: 4; Damage level [8]: 3; Damage level [9]: 3; Damage level [10]: 3; Damage level [11]: 3; Damage level [12]: 3; Damage level [13]: 3; Damage level [14]: 2; Damage level [15]: 2; Damage level [16]: 2; Damage level [17]: 2; Damage level [18]: 2; Damage level [19]: 3; Damage level [20]: 3; Damage level [21]: 2; Damage level [22]: 3

Question: With `CCCC(Cl)C1NC(=O)C(C(C)=O)=C1O` (stereo not shown) [Compound 40] as the molecule, how does the Damage level [1] read?
Answer: 3

Question: What about the Damage level [2] of the same molecule?
Answer: 4

Question: What about the Damage level [3] of the same molecule?
Answer: 3

Question: And the Damage level [4]?
Answer: 3

Question: What about the Damage level [5] of the same molecule?
Answer: 3

Question: What about the Damage level [6] of the same molecule?
Answer: 3

Question: What about the Damage level [7] of the same molecule?
Answer: 4

Question: What about the Damage level [8] of the same molecule?
Answer: 3

Question: What about the Damage level [9] of the same molecule?
Answer: 3

Question: What about the Damage level [10] of the same molecule?
Answer: 3

Question: And the Damage level [11]?
Answer: 3

Question: What about the Damage level [12] of the same molecule?
Answer: 4

Question: What about the Damage level [13] of the same molecule?
Answer: 3

Question: What about the Damage level [14] of the same molecule?
Answer: 2

Question: And the Damage level [15]?
Answer: 2

Question: What about the Damage level [16] of the same molecule?
Answer: 2

Question: And the Damage level [17]?
Answer: 3

Question: What about the Damage level [18] of the same molecule?
Answer: 2

Question: And the Damage level [19]?
Answer: 3

Question: And the Damage level [20]?
Answer: 3

Question: What about the Damage level [21] of the same molecule?
Answer: 2

Question: What about the Damage level [22] of the same molecule?
Answer: 3

Question: `CCC(C)C1NC(=O)C(C(=O)CCF)=C1O` (stereo not shown) [Compound 44] was tested. Which Damage level [1] did it give?
Answer: 2

Question: What about the Damage level [2] of the same molecule?
Answer: 4

Question: What about the Damage level [3] of the same molecule?
Answer: 2

Question: And the Damage level [4]?
Answer: 3

Question: What about the Damage level [5] of the same molecule?
Answer: 2

Question: What about the Damage level [6] of the same molecule?
Answer: 4

Question: What about the Damage level [7] of the same molecule?
Answer: 4

Question: And the Damage level [8]?
Answer: 3

Question: What about the Damage level [9] of the same molecule?
Answer: 3

Question: What about the Damage level [10] of the same molecule?
Answer: 4

Question: And the Damage level [11]?
Answer: 2

Question: And the Damage level [12]?
Answer: 3

Question: And the Damage level [13]?
Answer: 4

Question: And the Damage level [14]?
Answer: 2

Question: And the Damage level [15]?
Answer: 3

Question: What about the Damage level [16] of the same molecule?
Answer: 3

Question: And the Damage level [17]?
Answer: 3

Question: And the Damage level [18]?
Answer: 2

Question: And the Damage level [19]?
Answer: 3

Question: And the Damage level [20]?
Answer: 4

Question: What about the Damage level [21] of the same molecule?
Answer: 3

Question: What about the Damage level [22] of the same molecule?
Answer: 3

Question: How did the Damage level [1] turn out when `CCC(C)C1NC(=O)C(C(=O)CCc2cc(Cl)cc(Cl)c2)=C1O` (stereo not shown) [Compound 48] was run?
Answer: 3

Question: And the Damage level [2]?
Answer: 4

Question: What about the Damage level [3] of the same molecule?
Answer: 3

Question: What about the Damage level [4] of the same molecule?
Answer: 4

Question: And the Damage level [5]?
Answer: 4

Question: What about the Damage level [6] of the same molecule?
Answer: 4

Question: And the Damage level [7]?
Answer: 4

Question: And the Damage level [8]?
Answer: 4

Question: And the Damage level [9]?
Answer: 4

Question: And the Damage level [10]?
Answer: 4

Question: And the Damage level [11]?
Answer: 3

Question: What about the Damage level [12] of the same molecule?
Answer: 3

Question: What about the Damage level [13] of the same molecule?
Answer: 4

Question: And the Damage level [14]?
Answer: 2

Question: What about the Damage level [15] of the same molecule?
Answer: 2

Question: What about the Damage level [16] of the same molecule?
Answer: 3

Question: And the Damage level [17]?
Answer: 2

Question: What about the Damage level [18] of the same molecule?
Answer: 2

Question: And the Damage level [19]?
Answer: 3

Question: And the Damage level [20]?
Answer: 4

Question: What about the Damage level [21] of the same molecule?
Answer: 3

Question: And the Damage level [22]?
Answer: 3

Question: With `CCCC(C#N)C1NC(=O)C(=C(C)O)C1=O` (stereo not shown) [Compound 53] as the molecule, how does the Damage level [1] read?
Answer: 3

Question: And the Damage level [2]?
Answer: 4

Question: And the Damage level [3]?
Answer: 3

Question: What about the Damage level [4] of the same molecule?
Answer: 2

Question: What about the Damage level [5] of the same molecule?
Answer: 3

Question: And the Damage level [6]?
Answer: 4

Question: What about the Damage level [7] of the same molecule?
Answer: 4

Question: And the Damage level [8]?
Answer: 4

Question: And the Damage level [9]?
Answer: 3

Question: And the Damage level [10]?
Answer: 4

Question: What about the Damage level [11] of the same molecule?
Answer: 2

Question: What about the Damage level [12] of the same molecule?
Answer: 4

Question: And the Damage level [13]?
Answer: 3

Question: What about the Damage level [14] of the same molecule?
Answer: 3

Question: What about the Damage level [15] of the same molecule?
Answer: 2

Question: What about the Damage level [16] of the same molecule?
Answer: 3

Question: And the Damage level [17]?
Answer: 2

Question: And the Damage level [18]?
Answer: 3

Question: And the Damage level [19]?
Answer: 3

Question: And the Damage level [20]?
Answer: 4

Question: And the Damage level [21]?
Answer: 3

Question: What about the Damage level [22] of the same molecule?
Answer: 3
